One series deals with L‐type calcium channel. The experiment in a line: L‐type calcium channel inhibition, fluorescence assay in IMR‐32 cells. The class given is cell-based, human. The settings on record: KCl depolarization, n=4 assays, read-out: L‐type Ca^2+ IC50. The protocol: CHO cells stably expressing either hERG1a (KV11.1) channels (KCNH2; RRID:CVCL_H512) or human 5‐HT2B receptors were cultured at 37°C in a 5% CO2/95% air atmosphere in the Ham's Nutrient Mixture F‐12 (HAM F‐12) medium supplemented with 10% FBS (heat inactivated), 100 μg·ml^−1 of hygromycin B (Invitrogen), and 100 μg·ml^−1 of geneticin or 100 IU·ml^−1 of penicillin and 100 IU·ml^−1 of streptomycin, 25‐mM HEPES, 500 μg·ml^−1 of geneticin, and 250 μg·ml^−1 of Zeocin®. Adhered cells were detached using either Detachin® solution or trypsin and replated twice a week. HEK 293 (RRID:CVCL_0045) and IMR‐32 cells (CCL‐127; RRID:CVCL_0346) were cultured similarly but maintained instead in DMEM, supplemented with 10% FBS (heat inactivated), 100 IU·ml^−1 of penicillin and 100 IU·ml^−1 of streptomycin, and 25‐mM HEPES, and in the case of the IMR‐32 cell line, with minimum essential medium (MEM) non‐essential amino acids. IMR‐32 cells are derived from a human neuroblastoma and endogenously express L‐type (CaV1.x) calcium channel (Sher, Gotti, Pandiella, Madeddu, & Clementi, 1988).
Undifferentiated IMR‐32 cells were harvested, centrifuged, and resuspended in a probenecid‐Ringer solution consisting (in mM) 150 NaCl, 3 KCl, 1.2 MgCl2, 1 CaCl2, 20 HEPES, 5 glucose and 2.5 probenecid (pH 7.4 adjusted with NaOH, osmolarity 320–324 mOsm). We added 0.04% Pluronic F‐127 and Fluo‐4 to this solution, and after incubating the cells for 30 min at room temperature, these additives were removed from the probenecid‐Ringer solution by centrifugation and resuspension. The cell suspension was pipetted (250,000 cells in 75 μl per well) into a 96‐well plate, into which the test compound (75 μl per well at […] the final concentration; five concentrations with eight replicates) had already been added. The plate was centrifuged once (5 min, at 287 x g) to ensure that the cells were moved to the bottom of the wells. FLEXstation was then used to measure the increase in intracellular calcium at 37°C, following depolarization, which was induced by the addition (50 μl per well) of a KCl‐Ringer solution containing (in mM) 200 KCl, 20 CaCl2, 1.2 MgCl2, 20 HEPES and 2.5 probenecid respectively (pH adjusted to 7.4 with KOH, with an osmolarity of 320–324 mOsm).

In another series the target is T1, human NCX 1.1 (Homo sapiens, UniProt P32418).
T1 construct: expressed in transfected cells
The experiment in a line: Fluorescence screening assay for hNCX 1.1 inhibition (reverse mode, Sf9 cells). The class given is cell-based. Particulars: for IC50: Sf9 cells expressing human NCX1.1, reverse mode, fluorescence, n=3 assays. The protocol:
Spodoptera frugiperda (Sf9; RRID:CVCL_0549) cells are widely used for the transient and stable expression of recombinant proteins. Here, Sf9 cells were stably transfected with human NCX 1.1 and maintained in spinner flasks with insect cell culture medium (TNM‐FH), supplemented with 10% FBS, antibiotic–antimycotic solution, and 50 μg·ml^−1 of blasticidin at 28°C in a non‐humidified, CO2‐free atmosphere. The Sf9 cell suspension was subcultured three times a week.
NCX reverse mode activity was stimulated via a 50% dilution of the extracellular Na^+ level using the internal pipettor of FLEXstation, a fluorescence imaging plate reader (Molecular Devices, USA), while simultaneously monitoring intracellular calcium levels. After dilution, the concentration of other ions remained the same, but Na^+ concentration was diluted to the half of original concentration of 172 to 86 mM. For Sf9 insect cells, normal extracellular Na^+ ion concentration is 172 mM. Typically, 50 μl of a solution containing 150,000–200,000 Sf9–NCX cells was loaded onto each well of a 96‐well plate. Cells were preincubated with the intracellular calcium dye Fluo‐4 and Fluo‐6, and the concentrations of the test compound (three replicates) were determined for about 1 h at room temperature before experimentation. The extracellular solution contained (in mM) 172 NaCl, 10 HEPES, 1 CaCl2, 1.2 MgCl2, 0.33 NaH2PO4, 5 glucose, and 5 probenecid. The pH was adjusted to 7.4 with NaOH. The extracellular Na^+ was diluted by the addition of a Na^+‐free extracellular solution (containing in mM: 147 N‐methyl‐D‐glucamine (NMDG), 10 HEPES, 1 CaCl2, 1.2 MgCl2, 0.33 NaH2PO4, and 5 glucose with the pH adjusted by HCl to 7.4)‐induced robust and reproducible elevation of intracellular calcium. The osmolarity of both solutions was adjusted to 340–355 mOsm in order to match the Sf9 cell media osmolarity. In each plate, the IC50 determination for each test compound was based on relative fluorescence changes in comparison with control and 5‐mM nickel acetate‐induced NCX inhibition.

The next series addresses T2, MAO A (Homo sapiens, UniProt P21397).
T2 sequence (P21397 1-527): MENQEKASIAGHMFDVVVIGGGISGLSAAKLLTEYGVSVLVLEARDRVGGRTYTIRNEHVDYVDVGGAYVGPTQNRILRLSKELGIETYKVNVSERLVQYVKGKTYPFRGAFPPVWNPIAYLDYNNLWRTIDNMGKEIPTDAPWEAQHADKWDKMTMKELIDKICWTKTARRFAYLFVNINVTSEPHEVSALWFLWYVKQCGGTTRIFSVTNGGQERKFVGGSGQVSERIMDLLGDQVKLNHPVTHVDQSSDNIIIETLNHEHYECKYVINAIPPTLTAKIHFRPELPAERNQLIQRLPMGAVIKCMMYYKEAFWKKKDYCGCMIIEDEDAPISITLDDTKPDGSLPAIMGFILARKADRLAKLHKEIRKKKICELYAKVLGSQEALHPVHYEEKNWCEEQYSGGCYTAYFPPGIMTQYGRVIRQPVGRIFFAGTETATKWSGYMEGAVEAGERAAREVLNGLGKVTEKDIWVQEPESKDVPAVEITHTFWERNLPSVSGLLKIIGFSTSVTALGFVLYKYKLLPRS
The experiment in a line: MAO A inhibition (Table S2). Type of series: biochemical.

The nature of the next series: Solubility. The class given is physicochemical.

SMILES strings stand for the structures. In brackets after ≈: the same amount, converted by molar mass. Several values for one entry are separate records, joined by “and”; a condition that tells them apart may be missing. Equal values may be shown once. Read-outs that look alike come from different tables or passages of the source.

The IC50 is the midpoint of a concentration-inhibition curve. Usually inhibition stands for the share of the control response that was lost under treatment. Low readings indicate a response near the control, high ones a response far below the control. By solubility is commonly meant the concentration that dissolves in the medium under given conditions.

For the molecule `O=C(CN1CCC(O)CC1)Nc1ccc(Oc2ccc3c(c2)CCC(c2ccccc2)O3)nc1` (stereo not drawn) [ORM-10962], the results for the IC50 in the series on L‐type calcium channel and against human NCX 1.1 were 11.4 µM and 197 nM, respectively. Besides, on MAO A (10 μM), the “MAO A inhibition” value came to 11%. Also, the Solubility class entry in the series “Solubility” (pH 7.4 phosphate buffer) was “Moderate (moderate solubility between 10-100 µg/ml)”.
Regarding `Nc1cccc(-c2ccc(CNc3ccc(F)cc3)o2)c1` [ORM‐11372], the half-inhibitory concentration (IC50) with L‐type calcium channel was 6.1 µM; on human NCX 1.1 it was 6.2 nM and 6 nM. On human NCX 1.1, the “potency as NCX inhibitor relative to SEA0400” value was “more than 10 times”. Also, on MAO A (10 μM), the inhibition at 10 µM came to 29%. Also, the solubility was 5400 µg/mL (≈ 19.1 mM) in “Solubility” (5% glucose solution, saline or isotonic, 5% glucose used for in vivo dosing, read-out: Solubility in 5% glucose solution); 10 to 100 µg/mL (≈ 0.0354 to 0.354 mM) in the series “Solubility” (phosphate buffer, pH 7.4, aqueous buffer, pH 7.4 phosphate buffer, read-out: Solubility); 10 to 100 µg/mL (≈ 0.0354 to 0.354 mM) in the series “Solubility” (phosphate buffer, pH 7.4, aqueous buffer, pH 7.4 phosphate buffer, read-out: Solubility class); 5300 µg/mL (≈ 18.8 mM) in “Solubility” (saline, saline or isotonic, saline used for in vivo dosing, read-out: Solubility in saline).
For `CCOc1ccc(Oc2ccc(OCc3cc(F)ccc3F)cc2)c(N)c1` [SEA0400, reference compound], the IC50 in the series with L‐type calcium channel came to 3.4 µM; at human NCX 1.1 it was 376 nM; at MAO A it was 4.34 µM. Also, the Solubility class result in “Solubility” (pH 7.4 phosphate buffer) is listed as “insoluble”; in the series “Solubility” (pH 7.4 phosphate buffer, listed as SEA 0400), “Insoluble (insoluble less than 10 µg/ml)”. Moreover, the solubility result in the series “Solubility” (pH 7.4 phosphate buffer) is given as “less than 10 μg·ml^−1”.
